The results in this text go back to EP1683521A1, “Peptide deformylase inhibitors, their use, and pharmaceutical compositions containing the same” (CENTRE NATIONAL DE LA RECHERCHE SCIENTIFIQUE (CNRS), priority 2005, dated 2006).

One assay deals with B. subtilis-MHY101. Briefly: B. subtilis MIC. The settings on record: Bacillus subtilis.
In a further assay the target is T1, EcPDF1B (Escherichia coli, UniProt P0A6K3).
T1 construct: made in house
Briefly: PDF inhibition assay coupled to formate dehydrogenase (in vitro assay). The format is biochemical.

Another assay relates to E. coli-JM101Tr. In words: E. coli MIC, WT strain. The settings on record: Escherichia coli, WT strain JM101Tr.
The next assay has as its system B. subtilis-MHD101. In words: B. subtilis MIC. The settings on record: Bacillus subtilis.
Another assay addresses T2, AtPDF1A (Arabidopsis thaliana, UniProt Q9FV53).
T2 construct: made in house
Briefly: PDF inhibition assay coupled to formate dehydrogenase (in vitro assay). It is filed as biochemical. The settings on record: mitochondrial PDF, 25 nM in assay; 10 % dimethyl sulfoxide; (TB) = tight binding.

The target in the next assay is T3, BsPDF2 (Geobacillus stearothermophilus, UniProt O31410).
T3 construct: made in house
T3 sequence (O31410 whole entry): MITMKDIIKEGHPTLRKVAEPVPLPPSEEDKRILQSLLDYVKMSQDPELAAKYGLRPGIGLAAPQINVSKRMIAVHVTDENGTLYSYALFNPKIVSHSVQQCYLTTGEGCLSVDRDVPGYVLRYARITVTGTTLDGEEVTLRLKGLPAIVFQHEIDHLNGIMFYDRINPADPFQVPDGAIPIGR
The description is as above. It is filed as biochemical, Bacillus stearothermophilus.

For another assay, the system named is B. subtilis-M03482. In words: B. subtilis MIC. The settings on record: Bacillus subtilis.
The next assay concerns E. coli-CAG1284. In words: E. coli MIC, tolC mutant strain. The settings on record: Escherichia coli.
The next assay deals with B. subtilis-168. Briefly: B. subtilis MIC.
Assay [1] relates to Arabidopsis thaliana (ecotype WS4). Briefly: Growth inhibition of Arabidopsis thaliana. The format is in vivo.
For another assay, the target named is T4, EcPDF (Escherichia coli, UniProt P0A6K3).
T4 construct: made in house
T4 sequence (P0A6K3 1-148): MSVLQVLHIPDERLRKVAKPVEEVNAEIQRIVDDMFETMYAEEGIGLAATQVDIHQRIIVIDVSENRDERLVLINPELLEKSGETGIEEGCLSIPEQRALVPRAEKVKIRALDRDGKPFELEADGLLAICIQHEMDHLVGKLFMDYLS
In words: NMR titrations on peptide deformylase. The format is binding. The settings on record: probed by NMR titrations.

The mark [2] stands for this setting: WT context (strains 168 and MO3482).
The mark [3] stands for this setting: nickel-bound enzyme, 40 nM in assay, 10 % dimethyl sulfoxide, (TB) = tight binding, read-out: IC50.
Where [4] appears, read: nickel-bound enzyme, 20 nM in assay, 10 % dimethyl sulfoxide, (TB) = tight binding, read-out: IC50.

≈ marks a conversion by molar mass, not a printed value. Read-outs that look alike come from different tables or passages of the source. A value given as a limit tells only on which side of the number the result lay.

T2 sequence (Q9FV53 61-269): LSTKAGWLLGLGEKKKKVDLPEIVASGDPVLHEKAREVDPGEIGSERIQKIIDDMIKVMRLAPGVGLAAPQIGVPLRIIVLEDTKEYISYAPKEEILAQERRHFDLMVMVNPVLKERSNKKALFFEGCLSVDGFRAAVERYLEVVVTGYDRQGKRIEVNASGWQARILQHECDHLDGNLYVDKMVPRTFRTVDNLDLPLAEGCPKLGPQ
T1 sequence (P0A6K3 whole entry): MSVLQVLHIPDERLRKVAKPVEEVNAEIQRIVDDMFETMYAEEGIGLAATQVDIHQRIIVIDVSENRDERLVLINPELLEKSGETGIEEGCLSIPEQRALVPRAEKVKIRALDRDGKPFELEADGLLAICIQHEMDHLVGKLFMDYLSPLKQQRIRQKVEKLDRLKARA

Take `CC(C)(C)OC(=O)NC(CC(=O)NO)Cc1ccccc1` (stereo not shown) [RAS270]: the MIC was 8 mg/L (≈ 27.2 µM) with B. subtilis-MHY101; above 300 mg/L against E. coli-JM101Tr; above 300 mg/L in the assay with B. subtilis-MHD101; above 300 mg/L in the assay on B. subtilis-M03482; 32 mg/L (≈ 109 µM) in the assay on E. coli-CAG1284; above 300 mg/L with B. subtilis-168 (Bacillus subtilis). For the same molecule, the MIC result in the assay with B. subtilis-168 (setting [2]) is reported as “no antibiotic properties”. Besides, the IC50 at EcPDF1B came to 0.044 µM; at AtPDF1A, 83 µM; on BsPDF2 it was 0.3 µM.
In the case of `O=C(Cc1cn(C(=O)OCc2ccccc2)c2ccc(Br)cc12)NO` [Compound 2, 5-bromo-3-hydroxycarbamoylmethyl-indole-1-carboxylic acid benzyl ester], the MIC with B. subtilis-MHY101 was found to be 6 mg/L (≈ 14.9 µM); against B. subtilis-MHD101, 12 mg/L (≈ 29.8 µM); in the assay with B. subtilis-M03482, 16 mg/L (≈ 39.7 µM); in the assay on B. subtilis-168 (Bacillus subtilis), 20 mg/L (≈ 49.6 µM); against B. subtilis-168 (strain 168 (WT context)) it was 20 mg/L (≈ 49.6 µM). Also, the IC50 at EcPDF1B (setting [3]) is 0.026 µM; on AtPDF1A it was 14 µM; on BsPDF2 (setting [4]) it was below 0.027 µM. Also, the “concentration at which growth inhibition is observed” value in [1] is “higher than 50 µM”.
As for `CC(C)(C)OC(=O)NC(Cc1ccccc1)CN(O)C=O` (stereo not shown) [RAS358], the minimum inhibitory concentration (MIC) in the assay on B. subtilis-MHY101 is 9 mg/L (≈ 30.6 µM); in the assay with B. subtilis-MHD101, above 300 mg/L; against B. subtilis-M03482, above 300 mg/L; against B. subtilis-168 (Bacillus subtilis) it was above 300 mg/L; in the assay with B. subtilis-168 (setting [2]), “no antibiotic properties”. Also, the IC50 at EcPDF1B (setting [3]) amounted to 0.05 µM; at AtPDF1A it was 150 µM; at BsPDF2 (setting [4]), 0.4 µM.
In the case of `Brc1ccc2[nH]ccc2c1` [5-bromoindole], the binding constant result at EcPDF is “in the millimolar range”.
